Assay results as given in patent US10925858B2, “S-nitrosoglutathione (GSNO) and GSNO reductase inhibitors for use in therapy” (MUSC FOUNDATION FOR RESEARCH DEVELOPMENT, priority 2017, dated 2021).

Tests used:
[1] = system: myelin; assay: Spinal cord demyelination (MBP staining and Western) in EAE mice; type: in vivo, C57BL/6J mice; settings: GSNO 1 mg/kg/day or FeTPPS 30 mg/kg/day i.p.
Protocol: Western immunoblot analysis was performed by standard method using 50 μg of cell lysates. Following the SDS-PAGE electrophoresis, proteins were transferred from the gel onto the Polyvinylidene fluoride membrane (GE Healthcare Life Sciences, Marlborough, Mass.). […]
EAE was induced as described previously (Nath et al., 2009). […] The group size was determined by power analysis based on our previous data (Nadi et al., 2009). […] Clinical signs of EAE were scored in animal facility in a blinded fashion to experimenter between 2 and 4 pm daily by examiners blinded to experimental treatments using the following scale: 0=no clinical signs of disease; 1=limp tail or waddling gait with tail tonicity; 2=waddling gait with limp tail (ataxia); 2.5=ataxia with partial limb paralysis; 3=full paralysis of one limb; 3.5=full paralysis of one limb with partial paralysis of second limb; 4=full paralysis of two limbs; 4.5=moribund stage; 5=death. […]
Animals were anesthetized and fixed with cardiac perfusion of 4% paraformaldehyde (Nath et al., 2004). […] To assess the status of myelin, the sections were stained with antibody specific to MBP and detected with secondary antibody conjugated with immunofluorescent analysis. […]

[2] = system: BBB leakage; assay: Evan's blue extravasation assay (BBB leakage) in EAE mice; type: in vivo, C57BL/6J mice; settings: GSNO 1 mg/kg/day or FeTPPS 30 mg/kg/day i.p.
Protocol: (§1) EAE was induced as described previously (Nath et al., 2009). Animal procedures were approved by the institutional animal care and use committee of MUSC (AR #1644). Briefly, female C57BL/6J mice of 8-12 weeks of age weighing 18-22 g (The Jackson Laboratory, Bar Harbor, Me., USA) were randomly divided into four groups: 1) EAE animals treated with vehicle (EAE; n=8), 2) EAE with GSNO (1 mg/kg body weight per day; i.p.) treatment (EAE+GSNO; n=12), 3) EAE with FeTPPS (30 mg/kg body weight per day; i.p.) treatment (EAE+FeTPPS; n=8), 4) control with vehicle (Ctrl; n=8). The group size was determined by power analysis based on our previous data (Nadi et al., 2009). Then, the mice were immunized subcutaneously in the flank regions with MOG35-55 peptide (MOG; 200 ug; Peptide International) emulsified (1:1) in 100 ul complete Freund's adjuvant (CFA) CHI day 0 and day 7. […] Clinical signs of EAE were scored in animal facility in a blinded fashion to experimenter between 2 and 4 pm daily by examiners blinded to experimental treatments using the following scale: 0=no clinical signs of disease; 1=limp tail or waddling gait with tail tonicity; 2=waddling gait with limp tail (ataxia); 2.5=ataxia with partial limb paralysis; 3=full paralysis of one limb; 3.5=full paralysis of one limb with partial paralysis of second limb; 4=full paralysis of two limbs; 4.5=moribund stage; 5=death. […]

[3] = system: intracellular Ca^2+ ([Ca^2+]i) influx; assay: Assay for intracellular Ca2+ influx in thrombin treated hBMVECs; type: cell-based, human; settings: thrombin 0.1 unit/ml; L-NIO or FeTPPS 10 μM; GSNO or SIN-1 various concentrations
Protocol: Cell culture: Primary human brain microvascular endothelial cells (hBMVECs) were purchased from Angio-Proteomie (Cat #: cAP-0002, Atlanta, Ga.). The cells were cultured in cell culture flasks or plates precoated with Quick Coating Solution (Angio-Proteomie; Cat #: cAP-01) and maintained in Endothelial Growth Medium (Angio-Proteomie; Cat #: cAP-02) at 37° C. under 5% CO2/95% air. When the cells were almost confluent, the medium was replaced with endothelial basal medium (Angio-Proteomie; Cat #: cAP-03) containing 0.5% fetal bovine serum (FBS; Life Technologies, Grand Island, N.Y.) about 8-12 hours before the experiment. No institutional approval was required for this study. The study was not pre-registered. Intracellular Ca^2+ concentration ([Ca^2+]i) was measured with Fluo-4 Direct Calcium Assay Kit (Thermo Fisher Scientific, Cat #: F10471, Grand Island, N.Y.). Briefly, culture medium in the 96-well plate was replaced with a Ca^2+ sensitive dye Fluo-4 in an endothelial basal medium. After 30 min incubation, the dye was removed and cells were incubated with the original medium with or without the drugs at 37° C. for 15 min. Following thrombin treatment, time course changes of fluorescent intensity were quantified using a CLARIOstar multi-well fluorometer (BMG Labtech, Cary, N.C.).

[4] = system: mononuclear cells; assay: H&E staining, peripheral mononuclear cell infiltration in EAE mice; type: in vivo, C57BL/6J mice; settings: GSNO 1 mg/kg/day or FeTPPS 30 mg/kg/day i.p.
Protocol: as §1

Row | Structure (SMILES) | protection of myelin in the spinal cord [1] | extravasation of Evan's blue dye into the CNS [2] | thrombin-induced intracellular Ca2+ influx [3] | extravasation of peripheral mononuclear cells into the CNS [4]
1 | Cl.O=S(=O)([O-])c1ccc(-c2c3nc(c(-c4ccc(S(=O)(=O)O)cc4)c4ccc([nH]4)c(-c4ccc(S(=O)(=O)O)cc4)c4nc(c(-c5ccc(S(=O)(=O)O)cc5)c5ccc2[nH]5)C=C4)C=C3)cc1.[Fe] [FeTPPS, 5,10,15,20-Tetrakis(4-sulfonatophenyl)porphyrinato Iron (III), Cl, reference compound] | protected myelin | significantly decreased | had not effect | significantly decreased
2 | N[C@@H](CCC(=O)N[C@@H](CSN=O)C(=O)NCC(=O)O)C(=O)O [GSNO, S-nitrosoglutathione] | protected myelin | significantly decreased | inhibited | significantly decreased
